Literature values, collected in patent US20090175803A1 (priority 2008, published 2009).

Tests used:
PPARA = biological target: T1, PPARA (Homo sapiens, UniProt Q07869)
T1 sequence (Q07869 1-468): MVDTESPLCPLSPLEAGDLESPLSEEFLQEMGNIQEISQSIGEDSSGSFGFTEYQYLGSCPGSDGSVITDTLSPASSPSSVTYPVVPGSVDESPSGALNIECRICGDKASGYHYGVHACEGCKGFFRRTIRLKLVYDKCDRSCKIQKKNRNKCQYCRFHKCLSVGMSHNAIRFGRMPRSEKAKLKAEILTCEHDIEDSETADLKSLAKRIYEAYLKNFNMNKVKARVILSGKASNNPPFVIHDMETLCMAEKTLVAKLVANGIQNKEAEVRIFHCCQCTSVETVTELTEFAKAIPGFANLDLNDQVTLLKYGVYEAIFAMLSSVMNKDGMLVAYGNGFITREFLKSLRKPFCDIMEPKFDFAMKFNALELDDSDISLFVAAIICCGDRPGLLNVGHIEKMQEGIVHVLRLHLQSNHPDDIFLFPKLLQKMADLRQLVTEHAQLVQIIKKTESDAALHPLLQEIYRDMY

[1] = tested on: carcinogen-induced preneoplastic lesions; conditions: mouse mammary organ culture
[2] = tested on: PGE2 production from LPS-stimulated human peripheral blood mononuclear cells; conditions: LPS-stimulated human PBMC
[3] = peroxyl-radical scavenging

PPARA agonism (PPARA): acts as a PPARA agonist
SMILES: COc1cc(/C=C/c2ccc(O)cc2)cc(OC)c1 [Pterostilbene, 4-[(E)-2-(3,5-dimethoxyphenyl)ethenyl]phenol]
cell proliferation and apoptosis (human gastric cancer): inhibit cell proliferation and induce apopotosis in a concentration- and time-dependent manner
blood glucose (animal studies): can lower blood glucose
lipid and glucose lowering effects (in vivo studies): possesses lipid and glucose lowering effects
inhibition of carcinogen-induced preneoplastic lesions [1]: significant inhibition
PGE2 production [2]: inhibited PGE2 production
total reactive antioxidant potential [3]: 237 ± 58 µM
